These results are taken from PubChem BioAssay (NCI).

Several values for one entry are separate records, joined by “and”; a condition that tells them apart may be missing. Equal entries are not always repeated.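 Step 1: Grow cells in 96-well plates. Step 2: Expose to compound for 48 hours at 5 concentrations. Step 3: Interpolate endpoints linearly; if unreached, use highest concentration. At the GI50, growth is halved. TGI denotes the concentration required for complete inhibition of growth.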

Test systems include HCT-15 colon; SK-MEL-5 melanoma; HL-60(TB) leukemia; OVCAR-4 ovarian; SNB-19 CNS; U251 CNS; 786-0 renal; UACC-62 melanoma; IGROV1 ovarian; A498 renal.
Holding throughout (experiment): DTP human tumour cell line panel, 48 h

The TGI is the concentration giving total growth inhibition. A lower TGI goes with more potent growth arrest. Broadly, the GI50 is the concentration at which growth is held to half of that of the control.

Take `O=C(Cc1ccccc1)NN1C(=O)C(Cl)C1c1cc(Br)ccc1O` (configuration not stated): the TGI is > 100 µM in the test with HCT-15 colon; > 100 µM with SK-MEL-5 melanoma; 13.6 µM in the test on HL-60(TB) leukemia; > 100 µM in the test with OVCAR-4 ovarian; 47.9 µM in the test with SNB-19 CNS; 32.6 µM in the test on U251 CNS. Moreover, the TGI is > 100 µM in the test on 786-0 renal, 30.7 µM with UACC-62 melanoma and > 100 µM in the test on IGROV1 ovarian.

With `Cc1ccn2c(c1)nc1nc3ccccc3nc12`, the TGI with HCT-15 colon, in the test with SK-MEL-5 melanoma, with HL-60(TB) leukemia, in the test on OVCAR-4 ovarian, in the test on SNB-19 CNS and in the test with U251 CNS was > 100 µM in each case. The TGI in the test with 786-0 renal, in the test on UACC-62 melanoma and in the test with IGROV1 ovarian was > 100 µM each time.

With `C1=CC2SSSC2C1` (configuration not stated), the TGI with HCT-15 colon, with SK-MEL-5 melanoma, in the test on HL-60(TB) leukemia, in the test on OVCAR-4 ovarian, in the test with SNB-19 CNS and with U251 CNS was > 100 µM in each case. Besides, the TGI with 786-0 renal, with UACC-62 melanoma and with IGROV1 ovarian was > 100 µM each time.

Turning to `O=S(=O)(N=S(c1ccccc1)c1ccccc1)c1ccccc1`, the TGI in the test on A498 renal, in the test on HCT-15 colon, in the test on HL-60(TB) leukemia, in the test on SNB-19 CNS, with U251 CNS and in the test with 786-0 renal was > 100 µM throughout.

Take `COc1cccc2c1C(=O)c1c(O)c3c(c(O)c1C2=O)C[C@@](O)(C(C)=O)C[C@@H]3OC1OC(C)C(O)C(N)C1Br` (some centres not stated): the GI50 in the test with A498 renal is 0.0657 µM; in the test with SK-MEL-5 melanoma, 0.0166 µM; in the test on OVCAR-4 ovarian it was 0.43 µM; with SNB-19 CNS, 0.025 µM; in the test with 786-0 renal, 0.0178 µM; in the test on UACC-62 melanoma, 0.0459 µM. Moreover, the TGI with A498 renal was 0.532 µM and 0.228 µM; in the test on HCT-15 colon it was 0.78 µM; in the test on SK-MEL-5 melanoma, 0.223 µM and 0.139 µM; in the test with OVCAR-4 ovarian, 0.83 µM and 2.71 µM; in the test on U251 CNS, 1.07 µM and 2.21 µM; in the test on 786-0 renal, 0.62 µM and 0.168 µM. Also, the TGI is 0.892 µM and 0.424 µM with UACC-62 melanoma; 1.41 µM and 9.05 µM in the test on IGROV1 ovarian.

As to `COC1(OC)C2(Cl)C(Cl)=C(Cl)C1(Cl)C1C=CC=CC12` (configuration not stated), the total growth inhibition concentration (TGI) in the test with HCT-15 colon, in the test with SK-MEL-5 melanoma, in the test on HL-60(TB) leukemia, in the test with OVCAR-4 ovarian, in the test with SNB-19 CNS and in the test with U251 CNS was > 100 µM in each case. Further, the TGI with 786-0 renal, with UACC-62 melanoma and in the test with IGROV1 ovarian was > 100 µM in each case.

Consider `COc1cc2c3c(n(CCCNC(=O)OCC4c5ccccc5-c5ccccc54)c(=O)c2cc1OC)-c1cc2c(cc1/C3=C\CCNC(=O)OCC1c3ccccc3-c3ccccc31)OCO2`, for which the GI50 is > 50 µM with HCT-15 colon; > 50 µM in the test on SK-MEL-5 melanoma; 18.1 µM with HL-60(TB) leukemia; > 50 µM in the test on OVCAR-4 ovarian; > 29.6 µM in the test with SNB-19 CNS; > 17.8 µM in the test with U251 CNS. The GI50 in the test with 786-0 renal is > 16.2 µM; with UACC-62 melanoma, > 21.6 µM; in the test with IGROV1 ovarian, 0.915 µM. The TGI in the test on HCT-15 colon was > 50 µM; in the test with SK-MEL-5 melanoma, > 50 µM; with HL-60(TB) leukemia, > 50 µM; with OVCAR-4 ovarian, > 50 µM; in the test with SNB-19 CNS, > 50 µM; with U251 CNS, > 36.7 µM. The TGI was > 29.8 µM in the test with 786-0 renal, > 36 µM in the test with UACC-62 melanoma and 4.93 µM in the test on IGROV1 ovarian.

In the case of `Cc1cc(Cl)ccc1N=C1NC(=O)C(CC(=O)Nc2ccc([N+](=O)[O-])cc2[N+](=O)[O-])S1` (configuration not stated), the TGI is 51.5 µM with A498 renal; > 100 µM with HCT-15 colon; 31.1 µM in the test with SK-MEL-5 melanoma; 56.3 µM in the test on OVCAR-4 ovarian; 73.2 µM in the test with SNB-19 CNS; 59.9 µM in the test on U251 CNS. For the same compound, the TGI was > 100 µM in the test on 786-0 renal, 64.7 µM in the test on UACC-62 melanoma and > 100 µM in the test with IGROV1 ovarian.

Consider `O=C(N/N=C/c1ccccc1)c1c(-c2cccnc2)cnc2ccccc12`, for which the TGI with HCT-15 colon, in the test with SK-MEL-5 melanoma, in the test with HL-60(TB) leukemia, in the test with OVCAR-4 ovarian, in the test with SNB-19 CNS and in the test on U251 CNS was > 100 µM throughout. The total growth inhibition concentration (TGI) in the test on 786-0 renal, in the test on UACC-62 melanoma and in the test with IGROV1 ovarian was > 100 µM in each case.

On to `Oc1cccnc1CN1CCCCC1`, for which the TGI in the test on A498 renal, in the test on HCT-15 colon, in the test with SK-MEL-5 melanoma, in the test on OVCAR-4 ovarian, in the test on SNB-19 CNS and in the test with U251 CNS was > 100 µM each time. Besides, the TGI in the test on 786-0 renal, in the test with UACC-62 melanoma and in the test with IGROV1 ovarian was > 100 µM throughout.

For the compound `CN1C(=O)c2cccc3cc([N+](=O)[O-])cc(c23)C1=O`, the total growth inhibition concentration (TGI) in the test with HCT-15 colon, in the test on SK-MEL-5 melanoma, with HL-60(TB) leukemia, in the test with OVCAR-4 ovarian, with SNB-19 CNS and with U251 CNS was > 10 µM throughout. In addition, the TGI with 786-0 renal, in the test on UACC-62 melanoma and with IGROV1 ovarian was > 10 µM in each case.

Turning to `NC(N)=N/N=C(\c1nc2ccc([N+](=O)[O-])cc2[nH]c1=O)C(O)c1ccc([N+](=O)[O-])cc1` (configuration not stated), the TGI in the test with HCT-15 colon, in the test on SK-MEL-5 melanoma, in the test on HL-60(TB) leukemia, with OVCAR-4 ovarian, in the test with SNB-19 CNS and in the test on U251 CNS was > 100 µM throughout. Moreover, the TGI in the test on 786-0 renal, in the test with UACC-62 melanoma and with IGROV1 ovarian was > 100 µM each time.

Take `Clc1ccc(C2=Nn3c(COc4ccccc4Cl)nnc3SC2)c(Cl)c1`: the GI50 in the test on HCT-15 colon is 54.6 µM; with SK-MEL-5 melanoma, 12.6 µM; in the test on HL-60(TB) leukemia, 19.4 µM; in the test with OVCAR-4 ovarian, 26.9 µM; with SNB-19 CNS it was 30.4 µM; in the test on U251 CNS, 14.2 µM. The GI50 with 786-0 renal is 25.6 µM; with UACC-62 melanoma it was 15.1 µM; with IGROV1 ovarian, 33.6 µM. In addition, the TGI with HCT-15 colon is > 100 µM; in the test with SK-MEL-5 melanoma it was 28.5 µM; with HL-60(TB) leukemia, 75.4 µM; in the test on OVCAR-4 ovarian, > 100 µM; in the test on SNB-19 CNS, > 100 µM; in the test on U251 CNS, 45.8 µM. Also, the TGI in the test on 786-0 renal is 65.4 µM; in the test with UACC-62 melanoma, 35.5 µM; in the test with IGROV1 ovarian, > 100 µM.
